Laboratory results reported in DBAASP.
≈ marks a conversion by molar mass, not a printed value. Blank lines part the entries; values can stand above or below the compound they belong to.

Experiments:
Assay in all cases: ≥ marks a high value that may be exact or a test limit, other limits are often not marked, values filed in µg/mL are converted to µM
[1] = test system: Bacillus subtilis ATCC 6633
[2] = test system: Staphylococcus aureus FDA 209P
[3] = test system: Escherichia coli ATCC 11219
[4] = test system: Klebsiella pneumoniae ATCC 10031
[5] = test system: Pseudomonas aeruginosa ATCC 13388
[6] = test system: Salmonella enterica subsp. enterica serovar Typhimurium ATCC 14028
[7] = test system: Staphylococcus aureus ATCC 6538
Bacillus megaterium Bm11 = test system: Bacillus megaterium Bm11
Escherichia coli ML-35 = test system: Escherichia coli ML-35
[8] = test system: Staphylococcus aureus ATCC 25923
[9] = test system: Erwinia amylovora PMV 6076
[10] = test system: Pseudomonas syringae pv. syringae EPS 94
[11] = test system: Xanthomonas campestris pv. Vesicatoria 2133-2
[12] = test system: Bacillus megaterium KCTC 1096
[13] = test system: Bacillus subtilis KCTC 1918
[14] = test system: Escherichia coli KCTC 1682
Proteus vulgaris = test system: Proteus vulgaris
[15] = test system: Pseudomonas aeruginosa KCTC 1637
[16] = test system: Staphylococcus aureus KCTC 1621
Escherichia coli KF111 = test system: Escherichia coli KF111
Escherichia coli KF130 = test system: Escherichia coli KF130
Escherichia coli UB1005 = test system: Escherichia coli UB1005
[17] = test system: Pseudomonas aeruginosa ATCC 27853
[18] = test system: Pseudomonas aeruginosa H374
[19] = test system: Pseudomonas aeruginosa H744
[20] = test system: Pseudomonas aeruginosa K799
[21] = test system: Salmonella enterica subsp. enterica serovar Typhimurium ATCC 14028s
[22] = test system: Staphylococcus epidermidis

MIC [12]: 3.12 µM (≈ 7.16 µg/mL)
MIC [13]: 1.56 µM (≈ 3.57 µg/mL)
MIC [14]: 25 µM (≈ 57.2 µg/mL)
MIC (Proteus vulgaris): 6.25 µM (≈ 14.3 µg/mL)
MIC [15]: 6.25 µM (≈ 14.3 µg/mL)
MIC [16]: 6.25 µM (≈ 14.3 µg/mL)
Compound: CC[C@H](C)[C@H](NC(=O)[C@H](CCCCN)NC(=O)[C@H](CCCCN)NC(=O)[C@H](Cc1ccccc1)NC(=O)[C@H](CC(C)C)NC(=O)[C@H](CCCCN)NC(=O)[C@H](Cc1c[nH]c2ccccc12)NC(=O)[C@@H](N)CCCCN)C(=O)N[C@@H](CO)C(=O)N[C@@H](CCCCN)C(=O)N[C@@H](Cc1ccccc1)C(=O)N[C@@H](CC(C)C)C(=O)N[C@@H](Cc1cnc[nH]1)C(=O)N[C@@H](CC(C)C)C(=O)N[C@@H](C)C(=O)N[C@@H](CCCCN)C(=O)N[C@@H](CCCCN)C(=O)N[C@@H](Cc1ccccc1)C(N)=O [KWKLFKKISKFLHLAKKF]

MIC (Escherichia coli KF111): 0.348 µM (≈ 1 µg/mL)
MIC (Escherichia coli KF130): 0.348 µM (≈ 1 µg/mL)
MIC (Escherichia coli UB1005): 0.348 µM (≈ 1 µg/mL)
MIC [17]: 4 µM (≈ 11.5 µg/mL)
MIC [18]: 1.39 µM (≈ 4 µg/mL)
MIC [19]: 1.39 µM (≈ 4 µg/mL)
MIC [20]: 2.78 µM (≈ 8 µg/mL)
MIC [21]: 1.39 µM (≈ 4 µg/mL)
MIC [22]: 1.39 µM (≈ 4 µg/mL)
Compound: CC[C@H](C)[C@H](NC(=O)[C@@H]1CCCN1C(=O)[C@H](CCCCN)NC(=O)[C@H](CC(C)C)NC(=O)[C@H](C)NC(=O)[C@@H](NC(=O)[C@@H](NC(=O)[C@H](CC(C)C)NC(=O)[C@@H](NC(=O)[C@H](CCCCN)NC(=O)[C@H](CCCCN)NC(=O)[C@H](C)NC(=O)[C@H](C)NC(=O)[C@H](CO)NC(=O)[C@@H](NC(=O)[C@H](CC(C)C)NC(=O)[C@H](CCCCN)NC(=O)[C@H](CCCCN)NC(=O)[C@H](CC(C)C)NC(=O)[C@H](Cc1ccccc1)NC(=O)[C@H](CO)NC(=O)[C@H](CCCCN)NC(=O)[C@H](Cc1c[nH]c2ccccc12)NC(=O)[C@@H](N)CCCCN)[C@@H](C)O)C(C)C)[C@@H](C)O)[C@@H](C)O)C(=O)N[C@@H](CO)C(=O)N[C@@H](CO)C(=O)O [KWKSFLKKLTSAAKKVLTTALKPISS]

MIC (Escherichia coli KF111): 1.32 µM (≈ 4 µg/mL)
MIC (Escherichia coli KF130): 1.32 µM (≈ 4 µg/mL)
MIC (Escherichia coli UB1005): 0.659 µM (≈ 2 µg/mL)
MIC [17]: 8 µM (≈ 24.3 µg/mL)
MIC [18]: 10.6 µM (≈ 32 µg/mL)
MIC [19]: 10.6 µM (≈ 32 µg/mL)
MIC [20]: 10.6 µM (≈ 32 µg/mL)
MIC [21]: 5.28 µM (≈ 16 µg/mL)
MIC [22]: 10.6 µM (≈ 32 µg/mL)
Compound: CC[C@H](C)[C@H](NC(=O)[C@@H]1CCCN1C(=O)[C@H](CCCCN)NC(=O)[C@H](CC(C)C)NC(=O)[C@H](C)NC(=O)[C@@H](NC(=O)[C@H](Cc1ccc(O)cc1)NC(=O)[C@H](Cc1ccccc1)NC(=O)[C@@H](NC(=O)[C@@H](NC(=O)[C@H](CCCCN)NC(=O)[C@@H](NC(=O)[C@@H]1CCCN1C(=O)[C@H](CO)NC(=O)[C@H](CCCCN)NC(=O)[C@H](Cc1ccccc1)NC(=O)[C@@H](NC(=O)[C@H](CCCCN)NC(=O)[C@H](CC(C)C)NC(=O)[C@H](Cc1ccccc1)NC(=O)[C@H](CO)NC(=O)[C@H](CCCCN)NC(=O)[C@H](Cc1c[nH]c2ccccc12)NC(=O)[C@@H](N)CCCCN)[C@@H](C)O)C(C)C)[C@@H](C)O)C(C)C)[C@@H](C)O)C(=O)N[C@@H](CO)C(=O)N[C@@H](CO)C(=O)O [KWKSFLKTFKSPVKTVFYTALKPISS]

MIC [3]: 15 µM (≈ 23 µg/mL)
MIC [4]: 30 µM (≈ 46 µg/mL)
MIC [5]: 5 µM (≈ 7.66 µg/mL)
MIC [6]: 8 µM (≈ 12.3 µg/mL)
MIC [7]: 15 µM (≈ 23 µg/mL)
Compound: CC[C@H](C)[C@H](NC(=O)CNC(=O)[C@@H](N)Cc1c[nH]c2ccccc12)C(=O)N[C@@H](CCCN=C(N)N)C(=O)N[C@@H](CC(=O)O)C(=O)N[C@H](C(=O)N[C@@H](CC(C)C)C(=O)N[C@@H](CCCCN)C(=O)N[C@@H](Cc1ccc(O)cc1)C(=O)NCC(=O)N[C@@H](CCCCN)C(=O)N1CCC[C@H]1C(=O)N[C@@H](CO)C(=O)O)[C@@H](C)CC [WGIRDILKYGKPS]

Second part, the compound before the results:

Compound: CC(C)C[C@H](NC(=O)[C@H](CCC(N)=O)NC(=O)[C@H](CCC(N)=O)NC(=O)[C@H](C)NC(=O)CNC(=O)[C@H](C)NC(=O)[C@H](CCCCN)NC(=O)CNC(=O)[C@@H](NC(=O)[C@H](CO)NC(=O)[C@H](CCCCN)NC(=O)[C@H](CC(C)C)NC(=O)[C@H](CC(C)C)NC(=O)[C@H](Cc1ccc(O)cc1)NC(=O)[C@H](CCCCN)NC(=O)[C@H](C)NC(=O)CNC(=O)[C@H](C)NC(=O)[C@H](CCCCN)NC(=O)[C@H](Cc1ccccc1)NC(=O)[C@H](CC(C)C)NC(=O)[C@H](CO)NC(=O)[C@H](CO)NC(=O)[C@H](Cc1ccccc1)NC(=O)CN)C(C)C)C(=O)N[C@@H](C)C(=O)N[C@H]1CSSC[C@@H](C(=O)N[C@@H](C)C(=O)O)NC(=O)[C@H](CC(N)=O)NC(=O)[C@H](CC(N)=O)NC(=O)[C@H](C)NC(=O)[C@H](C)NC(=O)[C@H](CCCCN)NC1=O [GFSSLFKAGAKYLLKSVGKAGAQQLACKAANNCA]
MIC [1]: 18.7 µM (≈ 64 µg/mL)
MIC [2]: 4.36 µM (≈ 14.9 µg/mL)

Compound: CC[C@H](C)[C@H](NC(=O)CN)C(=O)N[C@@H](Cc1cnc[nH]1)C(=O)N[C@@H](CCCCN)C(=O)N[C@H](C(=O)N[C@@H](CC(C)C)C(=O)N[C@@H](CCCCN)C(=O)N[C@@H](Cc1ccc(O)cc1)C(=O)NCC(=O)N[C@@H](CCCCN)C(=O)N1CCC[C@H]1C(=O)N[C@@H](CO)C(N)=O)[C@@H](C)CC [GIHKILKYGKPS]
MIC [3]: 5 µM (≈ 6.7 µg/mL)
MIC [4]: 5 µM (≈ 6.7 µg/mL)
MIC [5]: 20 µM (≈ 26.8 µg/mL)
MIC [6]: 10 µM (≈ 13.4 µg/mL)
MIC [7]: 10 µM (≈ 13.4 µg/mL)

Compound: CC[C@H](C)[C@H](NC(=O)CN)C(=O)N[C@@H](CCCCN)C(=O)N[C@@H](CCCCN)C(=O)N[C@H](C(=O)N[C@@H](CC(C)C)C(=O)N[C@@H](CCCCN)C(=O)N[C@@H](Cc1ccc(O)cc1)C(=O)NCC(=O)N[C@@H](CCCCN)C(=O)N[C@@H](CCCCN)C(=O)N[C@@H](CO)C(N)=O)[C@@H](C)CC [GIKKILKYGKKS]
MIC [3]: 20 µM (≈ 27.2 µg/mL)
MIC [4]: ≥ 50 µM
MIC [5]: ≥ 50 µM
MIC [6]: 20 µM (≈ 27.2 µg/mL)
MIC [7]: 5 µM (≈ 6.81 µg/mL)

Compound: CC[C@H](C)[C@H](NC(=O)[C@H](CCCCN)NC(=O)[C@H](CCCCN)NC(=O)[C@H](CCCN=C(N)N)NC(=O)[C@H](CC(C)C)NC(=O)[C@H](CCCN=C(N)N)NC(=O)[C@H](CCCN=C(N)N)NC(=O)[C@H](CC(C)C)NC(=O)[C@H](CC(C)C)NC(=O)CN)C(=O)NCC(=O)N[C@@H](CCC(=O)O)C(=O)N[C@H](C(=O)N[C@@H](Cc1ccccc1)C(=O)N[C@@H](CCCCN)C(=O)N[C@@H](CCCCN)C(=O)N[C@@H](Cc1ccc(O)cc1)C(=O)NCC(=O)O)[C@@H](C)CC [GLLRRLRKKIGEIFKKYG]
MIC (Bacillus megaterium Bm11): 4 µM (≈ 8.7 µg/mL)
MIC (Escherichia coli ML-35): 2 µM (≈ 4.35 µg/mL)
MIC [6]: 1 µM (≈ 2.18 µg/mL)
MIC [8]: 4 µM (≈ 8.7 µg/mL)

Compound: CC(C)C[C@H](NC(=O)[C@H](Cc1cnc[nH]1)NC(=O)[C@H](CCC(=O)O)NC(=O)[C@H](Cc1c[nH]c2ccccc12)NC(=O)[C@H](CC(=O)O)NC(=O)[C@H](CCCCN)NC(=O)[C@H](CC(C)C)NC(=O)[C@H](Cc1cnc[nH]1)NC(=O)[C@H](CCC(=O)O)NC(=O)[C@H](Cc1c[nH]c2ccccc12)NC(=O)[C@H](CC(=O)O)NC(=O)[C@H](CCCCN)NC(=O)[C@H](CC(C)C)NC(=O)[C@H](Cc1cnc[nH]1)NC(=O)[C@H](CCC(=O)O)NC(=O)[C@H](Cc1c[nH]c2ccccc12)NC(=O)[C@H](CC(=O)O)NC(=O)[C@@H](N)CCCCN)C(=O)O [KDWEHLKDWEHLKDWEHL]
MIC [9]: ≥ 100 µM
MIC [10]: ≥ 100 µM
MIC [11]: ≥ 100 µM

Compound: CC[C@H](C)[C@H](NC(=O)[C@H](CCCCN)NC(=O)[C@H](CCCCN)NC(=O)[C@H](Cc1ccccc1)NC(=O)[C@H](CC(C)C)NC(=O)[C@H](CCCCN)NC(=O)[C@@H](N)CCCCN)C(=O)N[C@@H](CC(C)C)C(=O)N[C@@H](CCCCN)C(=O)N[C@@H](Cc1ccc(O)cc1)C(=O)N[C@@H](CC(C)C)C(=O)O [KKLFKKILKYL]
MIC [9]: 8.66 µM (≈ 12.3 µg/mL)
MIC [10]: 8.66 µM (≈ 12.3 µg/mL)
MIC [11]: 14.1 µM (≈ 20.1 µg/mL)
